PubChem BioAssay AID1745844 (Carcinogenic Potency Database (CPDB), 2022)
Active and inactive are the calls of the source. The rule behind the calls is not given here.

Tested on: rodent lifetime carcinogenesis bioassay, tumor incidence TD50
Experiment: carcinogenic potency in animals, long-term in vivo studies, CPDB compilation (AID 1745844)

COc1ccc(N)c(OC)c1
TD50 (mouse, strain B6C3F1, females, in feed, site: any site (literature study), lesion: several types, types named in the paper, dosed 103 weeks, study length 104 weeks): 986 mg/kg/day (inactive)
TD50 (mouse, strain B6C3F1, females, in feed, site: liver, lesion: hepatocellular adenoma + hepatocellular carcinoma + neoplastic nodule, dosed 103 weeks, study length 104 weeks): 2790 mg/kg/day
TD50 (mouse, strain B6C3F1, females, in feed, site: lung, lesion: alveolar/bronchiolar adenoma + alveolar/bronchiolar carcinoma, dosed 103 weeks, study length 104 weeks): 50600 mg/kg/day
TD50 (mouse, strain B6C3F1, males, in feed, site: any site (literature study), lesion: several types, types named in the paper, dosed 103 weeks, study length 104 weeks): 1650 mg/kg/day (inactive)
TD50 (mouse, strain B6C3F1, males, in feed, site: liver, lesion: hepatocellular adenoma + hepatocellular carcinoma + neoplastic nodule, dosed 103 weeks, study length 104 weeks): 1390 mg/kg/day
carcinogen call (rat, strain Fischer 344, females, in feed, site: any site (literature study), lesion: several types, types named in the paper, dosed 104 weeks, study length 105 weeks): negative (inactive)
carcinogen call (rat, strain Fischer 344, males, in feed, site: any site (literature study), lesion: several types, types named in the paper, dosed 104 weeks, study length 105 weeks): negative (inactive)

CCCCC/C=C\C/C=C\CCCCCCCC(=O)O[C@H](COC(=O)CCCCCCCCCCCCCCC)COP(=O)([O-])OCC[N+](C)(C)C
carcinogen call (rat, strain Wistar, females, in feed, site: liver, lesion: nodular hyperplasia, dosed 104 weeks, study length 104 weeks): negative (inactive)
TD50 (rat, strain Wistar, males, in feed, site: liver, lesion: cholangioma, dosed 104 weeks, study length 104 weeks): 42200 mg/kg/day (inactive)

Oc1ccc2c(c1)OCO2
TD50 (mouse, strain B6C3F1, females, in feed, site: forestomach, lesion: sarcoma, dosed 96 weeks, study length 96 weeks): 44800 mg/kg/day
TD50 (mouse, strain B6C3F1, females, in feed, site: forestomach, lesion: squamous-cell carcinoma, dosed 96 weeks, study length 96 weeks): 8330 mg/kg/day
TD50 (mouse, strain B6C3F1, females, in feed, site: liver, lesion: hyperplastic nodule, dosed 96 weeks, study length 96 weeks): 44800 mg/kg/day
TD50 (mouse, strain B6C3F1, males, in feed, site: forestomach, lesion: squamous-cell carcinoma, dosed 96 weeks, study length 96 weeks): 3070 mg/kg/day
TD50 (mouse, strain B6C3F1, males, in feed, site: lung, lesion: adenoma, dosed 96 weeks, study length 96 weeks): 41300 mg/kg/day
TD50 (mouse, strain B6C3F1, males, in feed, site: stomach, glandular, lesion: sarcoma, dosed 96 weeks, study length 96 weeks): 41300 mg/kg/day
TD50 (rat, strain F344/DuCrj, females, in feed, site: forestomach, lesion: papilloma, dosed 104 weeks, study length 104 weeks): 1090 mg/kg/day
TD50 (rat, strain F344/DuCrj, females, in feed, site: forestomach, lesion: squamous-cell carcinoma, dosed 104 weeks, study length 104 weeks): 6500 mg/kg/day
TD50 (rat, strain F344/DuCrj, males, in feed, site: forestomach, lesion: papilloma, dosed 104 weeks, study length 104 weeks): 1350 mg/kg/day
TD50 (rat, strain F344/DuCrj, males, in feed, site: forestomach, lesion: several types, types named in the paper, dosed 60 weeks, study length 60 weeks): 708 mg/kg/day
TD50 (rat, strain F344/DuCrj, males, in feed, site: forestomach, lesion: squamous-cell carcinoma, dosed 60 weeks, study length 60 weeks): 3920 mg/kg/day
TD50 (rat, strain F344/DuCrj, males, in feed, site: forestomach, lesion: squamous-cell carcinoma, dosed 104 weeks, study length 104 weeks): 1540 mg/kg/day
TD50 (rat, strain F344/DuCrj, males, in feed, site: forestomach, lesion: squamous-cell papilloma, dosed 60 weeks, study length 60 weeks): 909 mg/kg/day
TD50 (rat, strain F344/DuCrj, males, in feed, site: stomach, glandular, lesion: adenoma, dosed 104 weeks, study length 104 weeks): 16200 mg/kg/day

CC(=O)[O-].CC(=O)[O-].CC(=O)[O-].[Cr+3]
carcinogen call (mouse, strain Charles River CD1, females, in drinking water, site: any site (literature study), lesion: one or several types, types not named, dosed 145 weeks, study length 145 weeks): negative (inactive)
carcinogen call (mouse, strain Charles River CD1, females, in drinking water, site: lung, lesion: one or several types, types not named, dosed 145 weeks, study length 145 weeks): negative (inactive)
carcinogen call (mouse, strain Charles River CD1, males, in drinking water, site: any site (literature study), lesion: one or several types, types not named, dosed 139 weeks, study length 139 weeks): negative (inactive)
carcinogen call (mouse, strain Charles River CD1, males, in drinking water, site: lung, lesion: one or several types, types not named, dosed 139 weeks, study length 139 weeks): negative (inactive)
TD50 (rat, strain Long-Evans BLU:(LE), both sexes, in drinking water, site: any site (literature study), lesion: malignant tumor, dosed 182 weeks, study length 182 weeks): 7.62 mg/kg/day (inactive)
TD50 (rat, strain Long-Evans BLU:(LE), both sexes, in drinking water, site: any site (literature study), lesion: one or several types, types not named, dosed 182 weeks, study length 182 weeks): 1.61 mg/kg/day (inactive)
carcinogen call (rat, strain Long-Evans BLU:(LE), both sexes, in drinking water, site: liver, lesion: one or several types, types not named, dosed 182 weeks, study length 182 weeks): negative (inactive)

Nc1ccc(-c2ccc(N)c(N)c2)cc1N
TD50 (mouse, strain CD-1 HaM/ICR, females, in feed, site: any site (literature study), lesion: several types, types named in the paper, dosed 77 weeks, study length 98 weeks): 599 mg/kg/day (inactive)
TD50 (mouse, strain CD-1 HaM/ICR, females, in feed, site: liver, lesion: several types, types named in the paper, dosed 77 weeks, study length 98 weeks): 1690 mg/kg/day (inactive)
TD50 (mouse, strain CD-1 HaM/ICR, females, in feed, site: lung, lesion: several types, types named in the paper, dosed 77 weeks, study length 98 weeks): 1030 mg/kg/day (inactive)
TD50 (mouse, strain CD-1 HaM/ICR, males, in feed, site: any site (literature study), lesion: several types, types named in the paper, dosed 77 weeks, study length 94 weeks): 224 mg/kg/day
TD50 (mouse, strain CD-1 HaM/ICR, males, in feed, site: liver, lesion: several types, types named in the paper, dosed 77 weeks, study length 94 weeks): 4170 mg/kg/day (inactive)
TD50 (mouse, strain CD-1 HaM/ICR, males, in feed, site: lung, lesion: several types, types named in the paper, dosed 77 weeks, study length 94 weeks): 288 mg/kg/day
TD50 (rat, strain Charles River CD (Sprague-Dawley), males, in feed, site: any site (literature study), lesion: several types, types named in the paper, dosed 77 weeks, study length 107 weeks): 200 mg/kg/day
TD50 (rat, strain Charles River CD (Sprague-Dawley), males, in feed, site: liver, lesion: hepatoma, dosed 77 weeks, study length 107 weeks): 395 mg/kg/day
TD50 (rat, strain Charles River CD (Sprague-Dawley), males, in feed, site: liver, lesion: several types, types named in the paper, dosed 77 weeks, study length 107 weeks): 259 mg/kg/day
